From patent US12448392B2, “Spiropiperidine derivatives” (89BIO LTD, priority 2016, dated 2025)
Read-outs that look alike come from different tables or passages of the source.

Target: T1, recombinant human baculovirus-expressed GST-tagged FASN (Homo sapiens, UniProt P49327)
T1 construct: GST
Experiment: biochemical

[1] = 5 nM FASN, 150 μM NADPH, 10 μM acetyl-CoA, 25 μM malonyl-CoA, 90 minutes incubation, read-out: IC50 data for Compounds of Formula I, Activity

T1 sequence (P49327 whole entry): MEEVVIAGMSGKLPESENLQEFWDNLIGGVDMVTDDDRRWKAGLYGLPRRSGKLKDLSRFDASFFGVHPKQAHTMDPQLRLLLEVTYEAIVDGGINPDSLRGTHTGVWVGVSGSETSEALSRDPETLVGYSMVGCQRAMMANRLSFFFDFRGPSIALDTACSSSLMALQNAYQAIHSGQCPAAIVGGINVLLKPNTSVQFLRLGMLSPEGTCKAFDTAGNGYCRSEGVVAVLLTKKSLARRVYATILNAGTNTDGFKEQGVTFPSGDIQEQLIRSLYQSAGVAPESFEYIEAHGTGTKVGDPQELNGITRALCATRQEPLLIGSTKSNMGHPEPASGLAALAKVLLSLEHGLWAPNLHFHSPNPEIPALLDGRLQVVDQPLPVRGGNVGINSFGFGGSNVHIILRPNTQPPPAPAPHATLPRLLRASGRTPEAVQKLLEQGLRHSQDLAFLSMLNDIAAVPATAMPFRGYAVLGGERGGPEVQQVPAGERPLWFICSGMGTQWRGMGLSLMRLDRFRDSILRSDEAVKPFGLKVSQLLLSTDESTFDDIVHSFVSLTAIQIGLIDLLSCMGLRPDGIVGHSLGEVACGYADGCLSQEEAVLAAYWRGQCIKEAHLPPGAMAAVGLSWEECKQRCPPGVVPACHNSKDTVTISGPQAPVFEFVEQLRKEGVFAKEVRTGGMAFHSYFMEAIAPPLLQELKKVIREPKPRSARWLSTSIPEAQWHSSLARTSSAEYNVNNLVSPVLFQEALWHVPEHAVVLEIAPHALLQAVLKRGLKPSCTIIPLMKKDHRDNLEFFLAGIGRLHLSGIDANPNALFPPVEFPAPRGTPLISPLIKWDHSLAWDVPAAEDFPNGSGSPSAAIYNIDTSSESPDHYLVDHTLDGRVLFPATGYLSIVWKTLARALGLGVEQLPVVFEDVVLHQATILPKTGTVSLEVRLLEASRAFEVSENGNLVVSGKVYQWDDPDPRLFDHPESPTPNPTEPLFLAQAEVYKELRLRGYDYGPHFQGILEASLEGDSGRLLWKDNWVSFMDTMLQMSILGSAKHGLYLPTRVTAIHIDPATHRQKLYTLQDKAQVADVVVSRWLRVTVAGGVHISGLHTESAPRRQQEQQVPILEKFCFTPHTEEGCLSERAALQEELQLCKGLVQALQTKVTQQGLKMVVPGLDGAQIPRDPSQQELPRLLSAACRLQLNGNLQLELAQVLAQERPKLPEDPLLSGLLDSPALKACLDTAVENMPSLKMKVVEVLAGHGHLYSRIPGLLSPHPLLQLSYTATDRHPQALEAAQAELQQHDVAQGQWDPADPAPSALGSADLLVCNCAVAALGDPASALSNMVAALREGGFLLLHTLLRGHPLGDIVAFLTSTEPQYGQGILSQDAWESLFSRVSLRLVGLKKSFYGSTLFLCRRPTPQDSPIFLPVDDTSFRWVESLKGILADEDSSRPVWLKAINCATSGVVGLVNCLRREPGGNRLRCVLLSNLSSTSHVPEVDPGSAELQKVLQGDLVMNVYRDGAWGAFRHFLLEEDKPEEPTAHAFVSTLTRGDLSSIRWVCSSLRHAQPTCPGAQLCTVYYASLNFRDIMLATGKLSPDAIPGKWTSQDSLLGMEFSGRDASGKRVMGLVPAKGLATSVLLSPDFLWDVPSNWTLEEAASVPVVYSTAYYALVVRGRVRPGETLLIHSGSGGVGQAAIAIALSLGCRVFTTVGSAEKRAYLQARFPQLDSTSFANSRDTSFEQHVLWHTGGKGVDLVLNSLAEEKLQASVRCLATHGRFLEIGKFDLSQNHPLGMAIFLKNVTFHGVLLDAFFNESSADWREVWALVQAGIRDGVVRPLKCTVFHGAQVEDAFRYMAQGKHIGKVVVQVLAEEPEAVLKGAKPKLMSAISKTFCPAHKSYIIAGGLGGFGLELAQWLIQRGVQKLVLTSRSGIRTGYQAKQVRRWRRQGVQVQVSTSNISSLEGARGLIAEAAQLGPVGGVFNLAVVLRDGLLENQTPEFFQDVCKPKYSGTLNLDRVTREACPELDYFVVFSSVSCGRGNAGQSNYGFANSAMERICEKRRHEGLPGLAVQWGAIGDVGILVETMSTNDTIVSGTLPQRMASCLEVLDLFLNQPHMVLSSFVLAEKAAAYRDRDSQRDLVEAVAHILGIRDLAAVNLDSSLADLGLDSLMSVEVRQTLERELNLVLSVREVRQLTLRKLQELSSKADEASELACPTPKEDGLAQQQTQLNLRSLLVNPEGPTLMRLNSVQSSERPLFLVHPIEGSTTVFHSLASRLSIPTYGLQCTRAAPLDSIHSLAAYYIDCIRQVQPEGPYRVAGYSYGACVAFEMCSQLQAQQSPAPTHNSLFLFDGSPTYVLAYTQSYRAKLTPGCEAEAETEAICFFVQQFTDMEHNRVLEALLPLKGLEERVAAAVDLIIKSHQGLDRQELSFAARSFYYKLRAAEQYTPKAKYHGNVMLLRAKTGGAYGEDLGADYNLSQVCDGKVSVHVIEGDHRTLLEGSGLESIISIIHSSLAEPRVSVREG

Row | SMILES | IC50 [1] [nM] | IC50 [nM]
1 | CCONC(=O)N1CCC2(CCc3cc(-c4cnc5ccccc5c4C)ccc3O2)CC1 [Example 181, N-Ethoxy-6-(4-methyl-3-quinolyl)spiro[chromane-2,4′-piperidine]-1′-carboxamide] | 1 to 99 | 
2 | CCCNC(=O)N1CCC2(CCc3cc(-c4ccc5cccnc5c4C)ccc3O2)CC1 [Example 99, 6-(8-Methyl-7-quinolyl)-N-propyl-spiro[chromane-2,4′-piperidine]-1′-carboxamide] | 1 to 99 | 
3 | Cc1c(-c2ccc3c(c2)CCC2(CCN(C(=O)NC(C)C)CC2)O3)ccc2nccn12 [Example 111, N-Isopropyl-6-(5-methylimidazo[1,2-a]pyridin-6-yl)spiro[chromane-2,4′-piperidine]-1′-carboxamide] | 100 to 999 | 
4 | Cc1c(-c2ccc3c(c2)CC2(CCN(C(=O)NO)CC2)O3)ccc2cccnc12 [Example 155, 5-(8-Methyl-7-quinolyl)spiro[3H-benzofuran-2,4′-piperidine]-1′-carbohydroxamic acid] | 1000 to 10000 | 
5 | CCNC(=O)N1CCC2(CC1)OCc1cc(-c3ccc4c(C)nccc4c3)ccc1O2 [Example 197, N-ethyl-6-(1-methyl-6-isoquinolyl)spiro[4H-1,3-benzodioxine-2,4′-piperidine]-1′-carboxamide] |  | 1 to 99
6 | CCNC(=O)N1CCC2(CCc3cc(-c4ccc5c(C)nccc5c4)ccc3O2)CC1 [Example 187, N-Ethyl-6-(1-methyl-6-isoquinolyl)spiro[chromane-2,4′-piperidine]-1′-carboxamide] | 1 to 99 | 
7 | NC(=O)N1CCC2(CC1)OCc1cc(-c3cnc4sccc4c3)ccc1O2 [Example 89, 6-thieno[2,3-b]pyridin-5-ylspiro[4H-1,3-benzodioxine-2,4′-piperidine]-1′-carboxamide] |  | 1000 to 10000
8 | Cc1c(-c2ccc3c(c2)COC2(CCN(C(=O)[C@H]4CCCO4)CC2)O3)cnc2ccccc12 [Example 51] |  | 1 to 99
9 | CONC(=O)N1CCC2(CCc3cc(-c4ccc5cccnc5c4C)ccc3O2)CC1 [Example 120, N-Methoxy-6-(8-methyl-7-quinolyl)spiro[chromane-2,4′-piperidine]-1′-carboxamide] | 1 to 99 | 
10 | CCOC(=O)N1CCC2(CC1)OCc1cc(-c3ccc4cccnc4c3Cl)ccc1O2 [Example 137, Ethyl 6-(8-chloro-7-quinolyl)spiro[4H-1,3-benzodioxine-2,4′-piperidine]-1′-carboxylate] |  | 1000 to 10000
11 | CONC(=O)N1CCC2(CCc3cc(-c4ccc5c(C)nccc5c4)c(C)cc3O2)CC1 [Example 246, N-Methoxy-7-methyl-6-(1-methyl-6-isoquinolyl)spiro[chromane-2,4′-piperidine]-1′-carboxamide] | 100 to 999 | 
12 | CCONC(=O)N1CCC2(CC1)Cc1cc(-c3ccc4cccnc4c3C)ccc1O2 [Example 154, N-Ethoxy-5-(8-methyl-7-quinolyl)spiro[3H-benzofuran-2,4′-piperidine]-1′-carboxamide] | 1000 to 10000 | 
13 | CCC(=O)N1CCC2(CC1)OCc1cc(-c3ccc4cccnc4c3OC)ccc1O2 [Example 55, 1-[6-(8-Methoxy-7-quinolyl)spiro[4H-1,3-benzodioxine-2,4′-piperidine]-1′-yl]propan-1-one] |  | 1 to 99
14 | Cc1c(-c2ccc3c(c2)COC2(CCN(C(=O)NO)CC2)O3)cnc2ccccc12 [Example 140, 6-(4-Methyl-3-quinolyl)spiro[4H-1,3-benzodioxine-2,4′-piperidine]-1′-carbohydroxamic acid] |  | 1000 to 10000
15 | CCONC(=O)N1CCC2(CCc3cc(-c4ccc5cccnc5c4Cl)ccc3O2)CC1 [Example 69, 6-(8-chloro-7-quinolyl)-N-ethoxy-spiro[chromane-2,4′-piperidine]-1′-carboxamide] | 1 to 99 | 
16 | CCNC(=O)N1CCC2(CCc3cc(-c4ccc5cccnc5c4C)ccc3O2)CC1 [Example 97, N-Ethyl-6-(8-methyl-7-quinolyl)spiro[chromane-2,4′-piperidine]-1′-carboxamide] | 1 to 99 | 
